# pIC50: −log10 of the molar value. Counter-ions that a name gives are not always drawn.
# Target: T1, human GSK-3β (Homo sapiens (Human), UniProt P49841)
# Experiment: Activity on human GSK-3β, LANCE substrate phosphorylation assay
# Assay type: biochemical
# Details: 10 μM, in duplicate, first screening assay
# Protocol: Activity on human GSK-3β was assessed using the following methods (according to Meijer et al., Chem. Biol., 2003-10:1255-1266).
# In a first screening assay, compounds were tested in duplicate at a concentration of 10 μM.
# Human recombinant enzyme GSK-3β was incubated for 90 minutes at 22° C. in the presence of compounds or vehicle in a reaction buffer containing ATP plus 100 nM unphosphorylated specific substrate peptide (Ulight-[…] K-amide). Substrate phosphorylation was measured by LANCE technology (PerkinElmer, Conn., USA).
# In a second assay, the same compounds were assayed at five concentrations ranging from 100 μM to 10 nM with ten-fold dilutions in duplicate.
# (§1) The IC50 values (concentration causing a half maximal inhibition of control specific activity), reported in table 4, were determined by non-linear regression analysis of the inhibition curves generated with mean replicate values using Hill equation curve fitting.
# T1 sequence (P49841 whole entry): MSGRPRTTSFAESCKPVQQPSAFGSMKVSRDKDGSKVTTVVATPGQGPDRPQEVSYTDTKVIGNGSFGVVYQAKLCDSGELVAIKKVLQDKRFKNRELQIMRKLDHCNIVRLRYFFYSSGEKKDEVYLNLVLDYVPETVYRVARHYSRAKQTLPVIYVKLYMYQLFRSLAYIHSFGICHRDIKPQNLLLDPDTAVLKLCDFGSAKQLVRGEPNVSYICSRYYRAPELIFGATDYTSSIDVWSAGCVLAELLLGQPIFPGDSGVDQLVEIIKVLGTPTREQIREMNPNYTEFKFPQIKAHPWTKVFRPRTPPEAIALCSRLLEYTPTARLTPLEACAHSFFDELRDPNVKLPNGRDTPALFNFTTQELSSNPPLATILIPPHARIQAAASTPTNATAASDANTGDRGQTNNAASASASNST
row,inhibition at 10 µM [%],SMILES
1,71,"O=C(O)CN1CCC(CNC(=O)c2n[nH]c3cc(O)c(Br)cc23)CC1 [Compound 41, [4-({[(5-bromo-6-hydroxy-1H-indazol-3-yl)carbonyl]amino}methyl)piperidin-1-yl] acetic acid]"

# Same assay, conditions: compounds 1 to 15, LANCE assay, five concentrations 100 μM to 10 nM
row,pIC50,SMILES
1,6.25,"COCCN1CCC(CNC(=O)c2n[nH]c3ccc(-c4ccc(OC)cc4)cc23)CC1 [Compound 12, N-{[1-(2-methoxyethyl)piperidin-4-yl]methyl}-5-(4-methoxyphenyl)-1H-indazole-3-carboxamide]"
2,5.85,"COCCN1CCC(CNC(=O)c2n[nH]c3ccc(-c4cccnc4OC)cc23)CC1 [Compound 14, N-{[1-(2-methoxyethyl)piperidin-4-yl]methyl}-5-(2-methoxypyridin-3-yl)-1H-indazole-3-carboxamide]"
3,7.52,"COCCN1CCC(CNC(=O)c2n[nH]c3ccc(-c4cncc(OC)c4)cc23)CC1 [Compound 10, N-{[1-(2-methoxyethyl)piperidin-4-yl]methyl}-5-(5-methoxypyridin-3-yl)-1H-indazole-3-carboxamide]"

# The remaining lines, values behind:
row,SMILES,pIC50
1,"COCCN1CCC(CNC(=O)c2n[nH]c3ccc(-c4ccccc4)cc23)CC1 [Compound 9, N-{[1-(2-methoxyethyl)pipendin-4-yl]methyl}-5-phenyl-1H-indazole-3-carboxamide]",6.70
2,"COCCN1CCC(CNC(=O)c2n[nH]c3ccc(-c4cccnc4)cc23)CC1 [Compound 4, N-{[1-(2-methoxyethyl)piperidin-4-yl]methyl}-5-(pyridin-3-yl)-1H-indazole-3-carboxamide]",7.52
3,"COCCN1CCC(CNC(=O)c2n[nH]c3ccc(-c4ccc(OC)nc4)cc23)CC1 [Compound 15, N-{[1-(2-methoxyethyl)piperidin-4-yl]methyl}-5-(6-methoxypyridin-3-yl)-1H-indazole-3-carboxamide]",7.30
4,"COCCN1CCC(CNC(=O)c2n[nH]c3ccc(-c4ccc(C)cc4)cc23)CC1 [Compound 13, N-{[1-(2-methoxyethyl)piperidin-4-yl]methyl}-5-(4-methylphenyl)-1H-indazole-3-carboxamide]",6.25
5,"COCCN1CCC(CNC(=O)c2n[nH]c3ccc(-c4ccccc4F)cc23)CC1 [Compound 6, 5-(2-fluorophenyl)-N-{[1-(2-methoxyethyl)piperidin-4-yl]methyl}-1H-indazole-3-carboxamide]",7.15
6,"COCCN1CCC(CNC(=O)c2n[nH]c3ccc(-c4ccc(O)cc4)cc23)CC1 [Compound 11, 5-(4-hydroxyphenyl)-N-{[1-(2-methoxyethyl)piperidin-4-yl]methyl}-1H-indazole-3-carboxamide]",6.05
7,"COCCN1CCC(CNC(=O)c2n[nH]c3ccc(-c4ccc(C)nc4)cc23)CC1 [Compound 7, N-{[1-(2-methoxyethyl)piperidin-4-yl]methyl}-5-(6-methylpyridin-3-yl)-1H-indazole-3-carboxamide]",7.22
8,"COCCN1CCC(CNC(=O)c2n[nH]c3ccc(-c4cnccc4OC)cc23)CC1 [Compound 5, N-{[1-(2-methoxyethyl)piperidin-4-yl]methyl}-5-(4-methoxypyridin-3-yl)-1H-indazole-3-carboxamide]",7.30

# Target: T1, human GSK-3β
# Experiment: GSK-3β LanthaScreen TR-FRET Eu Kinase binding and displacement assay
# Details: compounds 16 to 41, LanthaScreen TR-FRET binding and displacement assay, five concentrations 100 μM to 10 nM
# Protocol: In a second assay, the same compounds were assayed at five concentrations ranging from 100 μM to 10 nM with ten-fold dilutions in duplicate. Compounds 1 to 15 were tested using the same first assay, compounds 16 to 41 were tested in another assay based on the binding and displacement of AlexaFluor® 647 labeled, ATP-competitive Kinase inhibitor scaffold using LanthaScreen™ TR-FRET technology Eu Kinase assay packet according to manufacturer's instruction (Life Technologies, Italy).
# as §1
row,pIC50,SMILES
1,6.11,"C/C=C/C(=O)NCCCN1CCC(CNC(=O)c2n[nH]c3ccc(OC)cc23)CC1 [Compound 38, N-[(1-{3-[(2E)-but-2-enoylamino]propyl}piperidin-4-yl)methyl]-5-methoxy-1H-indazole-3-carboxamide]"
2,7.70,"COc1cncc(-c2ccc3[nH]nc(C(=O)NCC4CCN(CC(=O)O)CC4)c3c2)c1 [Compound 30, {4-[({[5-(5-methoxypyridin-3-yl)-1H-indazol-3-yl]carbonyl}amino)methyl]piperidin-1-yl}acetic acid]"
3,5.99,"COc1ccc2[nH]nc(C(=O)NCC3CCN(CCCC(=O)O)CC3)c2c1 [Compound 24, 4-[4-({[(5-methoxy-1H-indazol-3-yl)carbonyl]amino}methyl)piperidin-1-yl] butanoic acid]"
4,6.24,"COCCN1CCC(CNC(=O)c2n[nH]c3ccc(-c4ccccc4C)cc23)CC1 [Compound 16, N-{[1-(2-methoxyethyl)piperidin-4-yl]methyl}-5-(2-methylphenyl)-1H-indazole-3-carboxamide]"
5,5.69,"CCCCCc1ccc2[nH]nc(C(=O)NCC3CCN(CC(=O)O)CC3)c2c1 [Compound 35, [4-({[(5-pentyl-1H-indazol-3-yl)carbonyl]amino}methyl)piperidin-1-yl] acetic acid]"
6,6.06,"CC#CC(=O)NCCCN1CCC(CNC(=O)c2n[nH]c3ccc(OC)cc23)CC1 [Compound 40, N-({1-[3-(but-2-ynoylamino)propyl]piperidin-4-yl}methyl)-5-methoxy-1H-indazole-3-carboxamide]"
7,6.01,"CCCC(=O)NCCCN1CCC(CNC(=O)c2n[nH]c3ccc(OC)cc23)CC1 [Compound 37, N-({1-[3-(butanoylamino)propyl]piperidin-4-yl}methyl)-5-methoxy-1H-indazole-3-carboxamide]"
8,5.47,"COc1ccc2[nH]nc(C(=O)NCC3CCN(CCCNC(=O)c4ccccc4)CC3)c2c1 [Compound 36, 5-methoxy-N-[(1-{3-[(phenylcarbonyl)amino]propyl}piperidin-4-yl)methyl]-1H-indazole-3-carboxamide]"
9,6.02,"CCC(=O)NCCCN1CCC(CNC(=O)c2n[nH]c3ccc(OC)cc23)CC1 [Compound 39, 5-methoxy-N-({1-[3-(propanoylamino)propyl]piperidin-4-yl}methyl)-1H-indazole-3-carboxamide]"
10,5.41,"CC(C)c1ccc2[nH]nc(C(=O)NCC3CCN(CC(=O)O)CC3)c2c1 [Compound 32, {4-[({[5-(propan-2-yl)-1H-indazol-3-yl]carbonyl}amino)methyl]piperidin-1-yl} acetic acid]"

# The next lines start with the compound.
row,SMILES,pIC50
1,"O=C(O)CN1CCC(CNC(=O)c2n[nH]c3ccc(-c4cccc(F)c4)cc23)CC1 [Compound 28, {4-[({[5-(3-fluorophenyl)-1H-indazol-3-yl]carbonyl}amino)methyl]piperidin-1-yl} acetic acid hydrate]",6.96
2,"O=C(O)CN1CCC(CNC(=O)c2n[nH]c3ccc(C4=CCOCC4)cc23)CC1 [Compound 33, {4-[({[5-(3,6-dihydro-2H-pyran-4-yl)-1H-indazol-3-yl]carbonyl}amino)methyl]piperidin-1-yl}acetic acid]",5.98
3,"O=C(NCC1CCNCC1)c1n[nH]c2ccc(Br)cc12 [Compound 25b, 5-Bromo-N-(piperidin-4-ylmethyl)-1H-indazole-3-carbox-amide hydrochloride]",6.28
4,"Cc1noc(C)c1-c1ccc2[nH]nc(C(=O)NCC3CCN(CC(=O)O)CC3)c2c1 [Compound 26, {4-[({[5-(3,5-Dimethylisoxazol-4-yl)-1H-indazol-3-yl]carbonyl}amino)methyl]piperidin-1-yl}acetic acid hydrate]",6.04
5,"CCOc1cc(F)c(F)cc1-c1ccc2[nH]nc(C(=O)NCC3CCN(CCOC)CC3)c2c1 [Compound 18, 5-(2-ethoxy-4,5-difluorophenyl)-N-{[1-(2-methoxyethyl)piperidin-4-yl]methyl}-1H-indazole-3-carboxamide]",5.97
6,"O=C(O)CN1CCC(CNC(=O)c2n[nH]c3ccc(-c4cncnc4)cc23)CC1 [Compound 25, {4-[({[5-(Pyrimidin-5-yl)-1H-indazol-3-yl]carbonyl}amino)methyl]piperidin-1-yl}acetic acid hydrate]",6.66
7,"O=C(O)CN1CCC(CNC(=O)c2n[nH]c3ccc(-c4cccc(Cl)c4Cl)cc23)CC1 [Compound 27, {4-[({[5-(2,3-dichlorophenyl)-1H-indazol-3-yl]carbonyl}amino)methyl]piperidin-1-yl}acetic acid hydrate]",7.00
8,"O=C(O)CN1CCC(CNC(=O)c2n[nH]c3ccc(C4CCCCC4)cc23)CC1 [Compound 34, [4-({[(5-cyclohexyl-1H-indazol-3-yl)carbonyl]amino}methyl)piperidin-1-yl] acetic acid]",5.97

# Source: patent US9611249B2, “1H-indazole-3-carboxamide compounds as glycogen synthase kinase 3 beta inhibitors” (AZIENDE CHIMICHE RIUNITE ANGELINI FRANCESCO A.C.R.A.F. …, priority 2012, dated 2017)
